Results published in publication PMC10435442, “Developing multitarget coumarin based anti-breast cancer agents: synthesis and molecular modeling study” (Scientific Reports, 2023).
Converted amounts (≈) assume the structure as drawn. “And” between values parts separate entries of the source, which are not always exact repeats. Equal values may be shown once. Read-outs that look alike come from different tables or passages of the source. Marks after values point to notes of the source that are not given here.

Assays:
MCF-10A = assay: MTT cytotoxicity assay, nonmalignant MCF-10A; settings: read-out: MCF-10A IC50; MTT, nonmalignant MCF-10A;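 note: MTT assay with absorbance read at 570 nm after 48 h exposure of cells to serial compound concentrations at 37 °C, testing selectivity against nonmalignant versus cancer cells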
MCF-7 [1] = assay: Annexin V-FITC/PI dual staining apoptosis assay, MCF-7; type: cell-based, human
in vitro = settings: human, MCF-10A cells (nonmalignant breast)
Bcl-2 = Bcl-2 level (ELISA) in treated cells; type: cell-based, human
MCF-7 [2] = assay: DNA flow cytometric cell cycle analysis, MCF-7; type: cell-based, human
MDA-MB-231 [3] = assay: MTT cytotoxicity assay, MDA-MB-231; settings: for IC50: Homo sapiens; for % viability: MDA
EGFR = EGFR (Homo sapiens, UniProt P00533); assay: In vitro EGFR enzyme inhibition assay (ELISA)
MCF-7 [4] = assay: MTT cytotoxicity assay, MCF-7; settings: for IC50: Homo sapiens
Bax = Bax level (ELISA) in treated cells; type: cell-based, human
Caspase-9 = Caspase-9 level (ELISA) in treated cells; type: cell-based, human
MDA-MB-231 [5] = assay: Annexin V-FITC/PI dual staining apoptosis assay, MDA-MB-231; type: cell-based, human
MDA-MB-231 [6] = assay: DNA flow cytometric cell cycle analysis, MDA-MB-231; type: cell-based, human
[7] = MCF-7, compared to untreated control
[8] = MDA-MB-231, read-out: MDA-MBA-231 IC50
[9] = MDA-MB-231, read-out: cytotoxicity_IC50 MDA
[10] = EGFR IC50, lab report 01-11-2021, 10 compounds
[11] = MCF7, read-out: cytotoxicity_IC50 mcf7
[12] = MDA-MB-231, compared to control

EGFR, sequence (P00533 25-1210): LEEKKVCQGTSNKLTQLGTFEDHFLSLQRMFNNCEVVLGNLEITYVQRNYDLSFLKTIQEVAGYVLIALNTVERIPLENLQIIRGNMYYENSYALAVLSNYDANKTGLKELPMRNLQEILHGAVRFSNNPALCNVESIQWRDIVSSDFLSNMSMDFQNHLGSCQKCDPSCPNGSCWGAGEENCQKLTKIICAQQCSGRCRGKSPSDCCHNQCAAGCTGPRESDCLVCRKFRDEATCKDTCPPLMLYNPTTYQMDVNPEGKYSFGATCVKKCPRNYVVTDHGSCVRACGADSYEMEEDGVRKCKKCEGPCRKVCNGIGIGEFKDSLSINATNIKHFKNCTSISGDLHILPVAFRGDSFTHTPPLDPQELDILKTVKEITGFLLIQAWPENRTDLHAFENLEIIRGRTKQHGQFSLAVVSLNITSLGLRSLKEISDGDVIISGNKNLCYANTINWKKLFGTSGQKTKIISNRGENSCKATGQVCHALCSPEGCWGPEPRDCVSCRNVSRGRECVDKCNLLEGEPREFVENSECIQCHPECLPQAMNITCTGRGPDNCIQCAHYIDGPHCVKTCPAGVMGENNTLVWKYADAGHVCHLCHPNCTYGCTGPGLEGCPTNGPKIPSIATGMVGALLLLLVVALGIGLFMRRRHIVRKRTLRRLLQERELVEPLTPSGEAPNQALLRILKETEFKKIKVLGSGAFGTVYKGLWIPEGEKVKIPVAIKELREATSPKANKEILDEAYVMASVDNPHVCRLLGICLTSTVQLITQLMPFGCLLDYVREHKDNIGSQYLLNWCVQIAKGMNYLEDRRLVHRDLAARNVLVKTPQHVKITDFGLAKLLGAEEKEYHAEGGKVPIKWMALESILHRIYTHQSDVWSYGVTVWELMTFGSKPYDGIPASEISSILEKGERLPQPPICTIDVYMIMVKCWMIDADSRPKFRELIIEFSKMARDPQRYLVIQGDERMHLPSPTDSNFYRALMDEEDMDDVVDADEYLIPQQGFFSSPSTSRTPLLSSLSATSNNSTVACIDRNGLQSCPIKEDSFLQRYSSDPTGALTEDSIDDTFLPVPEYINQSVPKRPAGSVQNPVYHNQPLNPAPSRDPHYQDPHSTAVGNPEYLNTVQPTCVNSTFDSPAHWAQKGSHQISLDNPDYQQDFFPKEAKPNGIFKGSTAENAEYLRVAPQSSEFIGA

O=C(COc1ccc2c(COC(=O)c3ccccc3)cc(=O)oc2c1)c1ccc(Cl)cc1 [Compound 8, {7-[2-(4-Chlorophenyl)-2-oxoethoxy]-2-oxo-2H-chromen-4-yl}methyl benzoate]
IC50 (MCF-10A): 79.9 ± 1.74 µM | Apoptosis Late (MCF-7 [1]; MCF7): 19.66 | Apoptosis Total (MCF-7 [1]; MCF7): 31.19 | % Apoptosis Early (MCF-7 [1]; MCF-7): 4.94^abcA % | % Apoptosis Late (MCF-7 [1]; MCF-7): 19.66^acA % | % Apoptosis Total (MCF-7 [1]; MCF-7): 31.19% and 31.19^abc % | % Necrosis (MCF-7 [1]; MCF-7): 6.59% | IC50 at 48 h (in vitro): 35.8 ± 1.74 µg/mL (≈ 79.8 µM) | viability at 48 h, 0.4 ug (in vitro): 84.7% | viability at 48 h, 1.6 ug (in vitro): 69.5% | viability at 48 h, 6.25 ug (in vitro): 63.2% | viability at 48 h, 25 ug (in vitro): 51.8% | viability at 48 h, 100 ug (in vitro): 43.6% | Bcl-2 Conc (Bcl-2; MCF-7 cells): 3.291±0.36^a ng/ml | Comment (cell cycle phase of growth arrest) (MCF-7 [2]; MCF7): cell growth arrest@ G1/S | DNA content %G0-G1 (MCF-7 [2]; MCF7): 55.83% | DNA content %Pre-G1 (MCF-7 [2]; MCF7): 31.19% | DNA content %S (MCF-7 [2]; MCF7): 39.85% | %G0-G1 (MCF-7 [2]; MCF-7, IC50 concentration): 55.83^c ^ACD % | %Pre-G1 (MCF-7 [2]; MCF-7, IC50 concentration): 31.19^ae ^AB % | %S (MCF-7 [2]; MCF-7, IC50 concentration): 39.85 ^CE % | arrest in S phase (MCF-7 [2]; [7]): 1.33 folds | increase of apoptotic cells in pre-G1 phase (MCF-7 [2]; [7]): 18.67 folds | IC50 (MDA-MB-231 [3]; [8]): 27.5 ± 0.67 µM | IC50 (MDA-MB-231 [3]; [9]): 12.3 ± 0.67 µg/mL | IC50 (EGFR; [10]): 1.1 µM | IC50 (EGFR; EGFR inhibition IC50): 1.1 ± 0.066 µM | EGFR %inh (EGFR; conc 10 (unit not given), lab report 01-11-2021): 83% | Percentage above Reference IC50 (potency relative to erlotinib) (EGFR): 7.636% | IC50 (MCF-7 [4]; MCF7, read-out: MCF-7 IC50): 5.8 ± 0.16 µM | IC50 (MCF-7 [4]; [11]): 2.62 ± 0.16 µg/mL | % viability (MCF-7 [4]; MCF7, 0.4ug): 61.556% | % viability (MCF-7 [4]; MCF7, 1.6ug): 54.284% | % viability (MCF-7 [4]; MCF7, 6.3ug): 43.461% | % viability (MCF-7 [4]; MCF7, 25ug): 36.189% | % viability (MCF-7 [4]; MCF7, 100ug): 27.3957% | Bax Conc (Bax; MCF-7 cells): 0.164±0.0056^acd ng/ml | Caspase-9 Conc. (Caspase-9; MCF-7 cells): 30.39±2.56^abc ng/ml

O=C(COc1ccc2c(COC(=O)c3ccc(Cl)cc3)cc(=O)oc2c1)c1ccc(Cl)cc1 [Compound 10, {7-[2-(4-Chlorophenyl)-2-oxoethoxy]-2-oxo-2H-chromen-4-yl}methyl 4-chlorobenzoate]
IC50 (MCF-10A): 76.8 ± 1.81 µM | IC50 at 48 h (in vitro): 37.1 ± 1.81 µg/mL (≈ 76.8 µM) | viability at 48 h, 0.4 ug (in vitro): 82.6% | viability at 48 h, 1.6 ug (in vitro): 69.1% | viability at 48 h, 6.25 ug (in vitro): 61.1% | viability at 48 h, 25 ug (in vitro): 52.6% | viability at 48 h, 100 ug (in vitro): 44.4% | Apoptosis Early (MDA-MB-231 [5]; MDA): 9.61 | Apoptosis Late (MDA-MB-231 [5]; MDA): 17.83 | Apoptosis Total (MDA-MB-231 [5]; MDA): 33.43 | Necrosis (MDA-MB-231 [5]; MDA): 5.99 | % Apoptosis Early (MDA-MB-231 [5]; MDA-MB-231): 9.61^df % | % Apoptosis Late (MDA-MB-231 [5]; MDA-MB-231): 17.83^df % | % Apoptosis Total (MDA-MB-231 [5]; MDA-MB-231): 33.43% and 33.43^df % | % Necrosis (MDA-MB-231 [5]; MDA-MB-231): 5.99% | Bcl-2 Conc (Bcl-2; MDA-MB-231 cells): 4.088±0.058^cf ng/ml | IC50 (MDA-MB-231 [3]; [8]): 2.3 ± 0.06 µM | IC50 (MDA-MB-231 [3]; [9]): 1.09 ± 0.06 µg/mL | % viability (MDA-MB-231 [3]; 0.4ug (log conc. -0.41)): 56.384% | % viability (MDA-MB-231 [3]; 1.6ug (log conc. 0.19)): 47.375% | % viability (MDA-MB-231 [3]; 6.25ug (log conc. 0.8)): 40.274% | % viability (MDA-MB-231 [3]; 25ug (log conc. 1.4)): 30.609% | % viability (MDA-MB-231 [3]; 100ug (log conc. 2)): 23.5084% | IC50 (EGFR; [10]): 0.0869 µM | IC50 (EGFR; EGFR inhibition IC50): 0.086 ± 0.006 µM | Percentage above Reference IC50 (potency relative to erlotinib) (EGFR): 97.67% and 97.674% | Comment (cell cycle phase of growth arrest) (MDA-MB-231 [6]; MDA): cell growth arrest@ S | DNA content %G0-G1 (MDA-MB-231 [6]; MDA): 51.97% | DNA content %Pre-G1 (MDA-MB-231 [6]; MDA): 33.43% | DNA content %S (MDA-MB-231 [6]; MDA): 43.82% | %G0-G1 (MDA-MB-231 [6]; MDA-MB-231, IC50 concentration): 51.97^ad ^AC % | %Pre-G1 (MDA-MB-231 [6]; MDA-MB-231, IC50 concentration): 33.43^bdf ^AB % | %S (MDA-MB-231 [6]; MDA-MB-231, IC50 concentration): 43.82^bc ^D % | cell cycle arrest at S phase (MDA-MB-231 [6]; [12]): 1.59 folds | increase of apoptotic cells in pre-G1 phase (MDA-MB-231 [6]; [12]): 16.22 folds | IC50 (MCF-7 [4]; MCF7, read-out: MCF-7 IC50): 95.8 ± 2.81 µM | IC50 (MCF-7 [4]; [11]): 46.3 ± 2.81 µg/mL | % viability (MCF-7 [4]; MCF7, 0.4ug): 85.616% | % viability (MCF-7 [4]; MCF7, 1.6ug): 73.288% | % viability (MCF-7 [4]; MCF7, 6.3ug): 64.521% | % viability (MCF-7 [4]; MCF7, 25ug): 54.315% | % viability (MCF-7 [4]; MCF7, 100ug): 44.863% | Bax Conc (Bax; MDA-MB-231 cells): 0.249±0.0079^be ng/ml | Caspase-9 Conc. (Caspase-9; MDA-MB-231 cells): 16.77±0.37^be ng/ml
